Test results: patent publication US20170291890A1 (Epizyme, Inc., priority 2014, published 2017)

Biological target: T1, KDM5A (Homo sapiens, UniProt P29375)
T1 construct: C-terminal FLAG-tagged KDM5A^1-1090 was purchased from BPS Biosciences; FLAG (C); purchased BPS Biosciences
T1 sequence (P29375 1-1090): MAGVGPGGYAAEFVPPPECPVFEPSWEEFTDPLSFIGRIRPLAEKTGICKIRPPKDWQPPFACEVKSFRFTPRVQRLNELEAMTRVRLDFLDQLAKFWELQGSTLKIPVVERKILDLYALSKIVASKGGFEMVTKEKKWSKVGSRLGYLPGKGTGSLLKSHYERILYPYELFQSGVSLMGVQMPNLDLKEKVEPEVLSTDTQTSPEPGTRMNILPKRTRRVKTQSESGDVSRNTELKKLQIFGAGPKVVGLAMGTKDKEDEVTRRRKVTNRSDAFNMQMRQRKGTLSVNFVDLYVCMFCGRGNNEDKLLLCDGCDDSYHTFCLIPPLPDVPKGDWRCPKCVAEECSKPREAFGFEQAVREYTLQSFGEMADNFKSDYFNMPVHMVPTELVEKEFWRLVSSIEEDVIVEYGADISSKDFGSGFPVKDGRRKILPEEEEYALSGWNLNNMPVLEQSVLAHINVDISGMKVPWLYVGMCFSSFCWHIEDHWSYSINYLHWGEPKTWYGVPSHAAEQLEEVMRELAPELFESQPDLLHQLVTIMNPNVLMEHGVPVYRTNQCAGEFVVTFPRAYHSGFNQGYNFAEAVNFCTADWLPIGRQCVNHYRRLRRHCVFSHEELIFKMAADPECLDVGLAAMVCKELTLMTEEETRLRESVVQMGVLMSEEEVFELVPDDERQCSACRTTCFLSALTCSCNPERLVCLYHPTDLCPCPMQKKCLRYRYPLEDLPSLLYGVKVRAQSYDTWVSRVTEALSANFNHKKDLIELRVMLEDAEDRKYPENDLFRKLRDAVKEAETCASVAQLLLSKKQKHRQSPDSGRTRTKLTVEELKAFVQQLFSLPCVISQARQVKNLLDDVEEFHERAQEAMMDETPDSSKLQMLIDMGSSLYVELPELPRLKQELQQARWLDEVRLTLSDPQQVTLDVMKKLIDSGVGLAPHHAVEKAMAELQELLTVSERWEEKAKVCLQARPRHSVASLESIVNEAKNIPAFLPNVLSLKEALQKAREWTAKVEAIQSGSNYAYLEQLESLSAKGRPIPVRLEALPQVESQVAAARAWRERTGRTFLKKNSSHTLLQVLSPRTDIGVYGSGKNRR
Assay: KDM5A Assay (SAMDI mass spectrometry demethylase assay)
Assay type: biochemical
Settings: C-terminal FLAG-tagged KDM5A 1-1090; class symbols; read-out: 5A IC50
Method: C-terminal FLAG-tagged KDM5A^1-1090 was purchased from BPS Biosciences. Peptides were synthesized by BioPeptide and all other reagents were purchased from Sigma-Aldrich at the highest level of purity possible. Assays were performed in a 50 μL volume in 384-well V-bottom polypropylene microplates (Greiner) at 25° C. Optimized 1× assay buffer was 50 mM HEPES (pH=8.0), 100 μM sodium ascorbate, 20 mM NaCl, 10 μM ammonium iron sulfate, 1 mM tris(2-carboxyethyl)phosphine (TCEP), 0.002% Tween-20, and 0.005% BSG. For compound screening, 35 μL of […] (final concentration, f.c.=20 nM) was added using a Multidrop Combi and preincubated with 1 μL of test compound (f.c.=10 μM) for 30 minutes and subsequently 15 μL of peptide with the following sequence NH2-ART[Kme-3]QTARKSTGGKA[K-Ahx-Biot]-amide (f.c.=250 nM) and 2-oxoglutarate (f.c.=15 μM) was added by Multidrop Combi to begin the reaction. Reactions proceeded for 150 minutes and were stopped by the addition of 5 μL of formic acid (f.c.=0.5%) using a Multidrop Combi and then analyzed by SAMDI Tech Inc.
SAMDI Tech analyzed all reactions using self-assembled monoloayer desorption/ionization technology as previously described (Gerard-Levin Z A, Scholle M D, Eisenberg A H, et al.: High-throughput screening of small molecule libraries using SAMDI mass spectrometry. ACS Comb Sci 2011; 13:347-350). Briefly, a 2 μL sample of the stopped demethylase reactions were transferred to a SAMDI array coated with 384 biotin-neutravidin spots using a 384-channel pipet station. The SAMDI arrays were incubated for 1 h in a humidified chamber, followed by washing of the surface with deionized ultra-filtered water (DIUF) and drying under nitrogen. A matrix of 30 mg/ml 2′,4′,6′-Trihydroxyacetophenone monohydrate (THAP) in acetone was applied using a TPP Mosquito 1.2 μL tip by dispensing 50 nL on each of the 384 spots on the array. SAMDI-MS was run using acquisition method ReflectorPositiveUTX. The % conversion of substrate to product was calculated using the AUC of the substrate and product peptide peaks.
An IC50 value was determined by contacting various concentrations of a test compound with one of the KDM4A, KDM4C or KDMSC enzyme constructs and plotting a dose-response curve which associates the amount of inhibition of the enzyme relative to the concentration of the test compound. From the curve, the IC50 value (which represents the concentration of the test compound necessary to inhibit maximal enzymatic activity by 50%) was determined. Additionally, the slope of the linear range of the plotted curve, which indicates the speed with which the curve rises between the minimum and maximum, was calculated.

Row | Compound | IC50
1 | Cc1nn(-c2ccccc2C#N)cc1Nc1cnccc1C(=O)O [Compound 70, 3-((1-(2-cyanophenyl)-3-methyl-1H-pyrazol-4-yl)amino) isonicotinic acid] | 1000 to 10000 nM
2 | COc1ccccc1-n1cc(C)c(Nc2cnccc2C(=O)O)n1 [Compound 63, 3-((1-(2-methoxyphenyl)-4-methyl-1H-pyrazol-3-yl)amino) isonicotinic acid] | 1 to 100 nM
3 | Cc1nn(CCN(C)C)cc1Nc1cnccc1C(=O)O [Compound 107, 3-(1-(2-(dimethylamino)ethyl)-3-methyl-1H-pyrazol-4-ylamino) isonicotinic acid] | 100 to 1000 nM
4 | CNC(=O)c1cccc(-n2ncc(Nc3cnccc3C(=O)O)c2C)c1 [Compound 59, 3-((5-methyl-1-(3-(methylcarbamoyl)phenyl)-1H-pyrazol-4-yl)amino) isonicotinic acid] | 1000 to 10000 nM
5 | O=C(O)c1ccncc1Nc1cc(-c2ccccc2)nn1-c1ccncc1 [Compound 56, 3-((3-phenyl-1-(pyridin-4-yl)-1H-pyrazol-5-yl)amino) isonicotinic acid] | 1000 to 10000 nM
6 | Cc1c(Nc2cnccc2C(=O)O)cnn1-c1ccccc1 [Compound 20, 3-((5-methyl-1-phenyl-1H-pyrazol-4-yl)amino)isonicotinic acid] | 1000 to 10000 nM
7 | Cc1c(Nc2cnccc2C(=O)O)cnn1[C@H]1CC[C@@H](N)CC1 [Compound 79, 3-((1-((cis)-4-aminocyclohexyl)-5-methyl-1H-pyrazol-4-yl)amino)isonicotinic acid] | 1000 to 10000 nM
8 | Cc1cn(-c2ccccc2C#N)nc1Nc1cnccc1C(=O)O [Compound 71, 3-((1-(2-cyanophenyl)-4-methyl-1H-pyrazol-3-yl)amino) isonicotinic acid] | 1 to 100 nM
9 | O=C(O)c1ccncc1Nc1c(-c2ccccc2)cnn1-c1ccccc1 [Compound 43, 3-((1,4-Diphenyl-1H-pyrazol-5-yl)amino)isonicotinic acid] | 10000 to 100000 nM
10 | N[C@H]1CC[C@@H](n2nc(-c3ccccc3)cc2Nc2cnccc2C(=O)O)CC1 [Compound 37, 3-((1-((cis)-4-aminocyclohexyl)-3-phenyl-1H-pyrazol-5-yl)amino)isonicotinic acid] | 1000 to 10000 nM
11 | Cc1nn(C2CCN(C(C)C)CC2)cc1Nc1cnccc1C(=O)O [Compound 102, 3-((1-(1-isopropylpiperidin-4-yl)-3-methyl-1H-pyrazol-4-yl)amino)isonicotinic acid] | 100 to 1000 nM
12 | COC(=O)c1ccncc1Nc1cnn(C2CCN(C(C)C)CC2)c1C [Compound 103, methyl 3-((1-(1-isopropylpiperidin-4-yl)-5-methyl-1H-pyrazol-4-yl)amino)isonicotinate] | 10000 to 100000 nM
13 | Cc1c(Nc2cnccc2C(=O)O)cnn1C1CCN(C(=O)c2ccccc2)CC1 [Compound 98, 3-(1-(1-benzoylpiperidin-4-yl)-5-methyl-1H-pyrazol-4-ylamino) isonicotinic acid] | 1000 to 10000 nM
14 | O=C(O)c1ccncc1Nc1cc(-c2ccccc2)nn1[C@H]1CC[C@H](O)CC1 [Compound 39, 3-((1-((trans)-4-hydroxycyclohexyl)-3-phenyl-1H-pyrazol-5-yl)amino)isonicotinic acid] | 10000 to 100000 nM
15 | Cc1nn(C2CCCNCC2)cc1Nc1cnccc1C(=O)O (single isomer, unassigned) [Compound 116] | 100 to 1000 nM
16 | Cc1nn(-c2ccc(O)cc2)c(C)c1Nc1cnccc1C(=O)O [Compound 76, 3-((1-(4-hydroxyphenyl)-3,5-dimethyl-1H-pyrazol-4-yl)amino)isonicotinic acid] | 10000 to 100000 nM
17 | O=C(O)c1ccncc1Nc1nn(-c2ccccc2)cc1-c1ccccc1 [Compound 42, 3-((1,4-diphenyl-1H-pyrazol-3-yl)amino)isonicotinic acid] | 100 to 1000 nM
18 | O=C(O)c1ccncc1Nc1cn(-c2ccccc2)nc1-c1ccccc1 [Compound 41, 3-((1,3-Diphenyl-1H-pyrazol-4-yl)amino)isonicotinic acid] | 1000 to 10000 nM
19 | Cc1nn(C2CCN(CC(F)(F)F)CC2)cc1Nc1cnccc1C(=O)O [Compound 99, 3-(3-methyl-1-(1-(2,2,2-trifluoroethyl)piperidin-4-yl)-1H-pyrazol-4-ylamino)isonicotinic acid] | 100 to 1000 nM
20 | Cc1nn(C2CCCNCC2)cc1Nc1cnccc1C(=O)O (single isomer, unassigned) [Compound 114] | 100 to 1000 nM

Second part, the compound after the results:

Row | IC50 | Compound
21 | 1 to 100 nM | Cc1c(Nc2cnccc2C(=O)O)nn(CCN2CCC(F)(F)CC2)c1-c1ccccc1 [Compound 67, 3-((1-(2-(4,4-difluoropiperidin-1-yl)ethyl)-4-methyl-5-phenyl-1H-pyrazol-3-yl)amino)isonicotinic acid]
22 | 1000 to 10000 nM | Cc1cc(Nc2cnccc2C(=O)O)nn1-c1ccccc1 [Compound 60, 3-((5-methyl-1-phenyl-1H-pyrazol-3-yl)amino)isonicotinic acid]
23 | 10000 to 100000 nM | CN1CCN(CCn2cc(-c3ccccc3)c(Nc3cnccc3C(=O)O)n2)CC1 [Compound 34, 3-((1-(2-(4-Methylpiperazin-1-yl)ethyl)-4-phenyl-1H-pyrazol-3-yl)amino)isonicotinic acid]
24 | 100 to 1000 nM | O=C(O)c1ccncc1Nc1nn(C2CCOCC2)cc1-c1ccccc1 [Compound 72, 3-((4-phenyl-1-(tetrahydro-2H-pyran-4-yl)-1H-pyrazol-3-yl)amino)isonicotinic acid]
25 | 100 to 1000 nM | Cn1cc(-c2cccc(F)c2)c(Nc2cnccc2C(=O)O)n1 [Compound 9, 3-((4-(3-Fluorophenyl)-1-methyl-1H-pyrazol-3-yl)amino) isonicotinic acid]
26 | 10000 to 100000 nM | Cc1c(-c2ccccc2)nn(CCN2CCC(F)(F)CC2)c1Nc1cnccc1C(=O)O [Compound 66, 3-((1-(2-(4,4-difluoropiperidin-1-yl)ethyl)-4-methyl-3-phenyl-1H-pyrazol-5-yl)amino)isonicotinic acid]
27 | 1 to 100 nM | Cc1cn(-c2ccccc2)nc1Nc1cnccc1C(=O)O [Compound 62, 3-((4-methyl-1-phenyl-1H-pyrazol-3-yl)amino) isonicotinic acid]
28 | 1000 to 10000 nM | O=C(O)c1ccncc1Nc1cnn(CCN2CCC(F)(F)CC2)c1-c1ccccc1 [Compound 18, 3-((1-(2-(4,4-difluoropiperidin-1-yl)ethyl)-5-phenyl-1H-pyrazol-4-yl)amino)isonicotinic acid]
29 | 1 to 100 nM | O=C(O)c1ccncc1Nc1nn(CCN2CCC(F)(F)CC2)cc1-c1ccccc1 [Compound 14, 3-((1-(2-(4,4-Difluoropiperidin-1-yl)ethyl)-4-phenyl-1H-pyrazol-3-yl)amino)isonicotinic acid]
30 | 1 to 100 nM | CN(C)CCCn1cc(-c2ccccc2)c(Nc2cnccc2C(=O)O)n1 [Compound 51, 3-((1-(3-(dimethylamino)propyl)-4-phenyl-1H-pyrazol-3-yl)amino) isonicotinic acid]
